{
  "source": "ChEMBL document CHEMBL5154927",
  "about": "“Discovery of Novel Bicyclic Phenylselenyl-Containing Hybrids: An Orally Bioavailable, Potential, and Multiacting Class of Estrogen Receptor Modulators against Endocrine-Resistant Breast Cancer” (J Med Chem, 2022)",
  "key": {"[1]": {"target": "T1, Hexokinase-1 (Homo sapiens) (UniProt P19367)", "T1 sequence (whole entry)": "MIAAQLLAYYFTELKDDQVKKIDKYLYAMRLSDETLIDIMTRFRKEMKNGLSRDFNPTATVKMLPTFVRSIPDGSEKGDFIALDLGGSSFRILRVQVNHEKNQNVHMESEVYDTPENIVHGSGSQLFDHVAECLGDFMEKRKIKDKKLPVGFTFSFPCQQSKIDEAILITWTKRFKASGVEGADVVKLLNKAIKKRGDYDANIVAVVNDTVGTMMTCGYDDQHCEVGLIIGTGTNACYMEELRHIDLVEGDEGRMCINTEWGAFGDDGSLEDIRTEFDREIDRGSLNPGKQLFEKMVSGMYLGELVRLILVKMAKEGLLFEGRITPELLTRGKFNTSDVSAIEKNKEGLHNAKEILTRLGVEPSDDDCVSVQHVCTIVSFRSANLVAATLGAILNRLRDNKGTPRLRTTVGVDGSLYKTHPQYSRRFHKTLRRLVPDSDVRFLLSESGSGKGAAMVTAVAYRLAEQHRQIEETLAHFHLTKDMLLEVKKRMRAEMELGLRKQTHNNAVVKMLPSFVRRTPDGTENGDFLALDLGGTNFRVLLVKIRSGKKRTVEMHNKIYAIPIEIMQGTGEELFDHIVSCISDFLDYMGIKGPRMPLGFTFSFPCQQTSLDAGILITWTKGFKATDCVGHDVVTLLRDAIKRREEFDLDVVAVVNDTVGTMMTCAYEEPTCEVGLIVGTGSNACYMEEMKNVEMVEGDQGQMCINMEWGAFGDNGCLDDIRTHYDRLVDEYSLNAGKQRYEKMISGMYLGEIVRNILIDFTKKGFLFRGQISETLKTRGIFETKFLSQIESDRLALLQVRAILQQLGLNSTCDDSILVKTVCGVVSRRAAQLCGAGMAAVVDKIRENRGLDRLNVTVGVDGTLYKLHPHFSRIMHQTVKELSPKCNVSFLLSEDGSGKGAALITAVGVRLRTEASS", "test": "Binding affinity to hexokinase-1 in human MCF7 cell lysate measured after overnight incubation by LC-MS/MS analysis", "type": "subcellular", "conditions": "filed as antagonist, time 14.0 hrs"}, "MCF7 [2]": {"system": "MCF7", "test": "Downregulation of hexokinase-1 expression in human MCF7 cell mitochondria at 16 uM measured after 24 hrs by DAPI staining based immunofluorescence microscopy", "type": "functional"}, "LCC2 [3]": {"system": "LCC2", "test": "Downregulation of hexokinase-1 expression in tamoxifen-resistant human LCC2 cell mitochondria at 20 uM measured after 24 hrs by DAPI staining based immunofluorescence microscopy", "type": "functional"}, "LCC2 [4]": {"system": "LCC2", "test": "Downregulation of hexokinase-1 expression in tamoxifen-resistant human LCC2 cell outer mitochondrial membrane measured after 24 hrs by Western blot analysis", "type": "functional", "conditions": "Mitochondria"}, "MCF7 [5]": {"system": "MCF7", "test": "Induction of ROS production in human MCF7 cells at 1 to 4 uM measured after 48 hrs by DCFH-DA staining based confocal laser scanning microscopic method", "type": "functional, cell-based", "conditions": "dose 1-4 µM"}, "MCF7 [6]": {"system": "MCF7", "test": "Induction of mitochondrial membrane potential loss in human MCF7 cells at 1 uM incubated for 48 hrs by JC-1 staining based flow cytometry relative to control", "type": "functional"}, "LCC2 [7]": {"system": "LCC2", "test": "Induction of mitochondrial membrane potential loss in tamoxifen-resistant human LCC2 cells at 5 to 30 uM incubated for 48 hrs by JC-1 staining based flow cytometry", "type": "functional, cell-based", "conditions": "dose 5-30 µM"}, "MCF7 [8]": {"system": "MCF7", "test": "Induction of apoptosis in human MCF7 cells assessed as total apoptotic cells at 0.5 uM incubated for 48 hrs by annexin V-FITC staining based flow cytometry", "type": "functional"}, "MCF7 [9]": {"system": "MCF7", "test": "Induction of apoptosis in human MCF7 cells assessed as total apoptotic cells at 4 uM incubated for 48 hrs by annexin V-FITC staining based flow cytometry", "type": "functional"}, "MCF7 [10]": {"system": "MCF7", "test": "Induction of apoptosis in human MCF7 cells assessed as decrease in Bcl2 level at 0.5 to 4 uM incubated for 48 hrs by western blot analysis", "type": "functional, cell-based", "conditions": "dose 0.5-4 µM"}, "MCF7 [11]": {"system": "MCF7", "test": "Induction of apoptosis in human MCF7 cells assessed as increase in Bax level at 0.5 to 4 uM incubated for 48 hrs by western blot analysis", "type": "functional, cell-based", "conditions": "dose 0.5-4 µM"}, "LCC2 [12]": {"system": "LCC2", "test": "Induction of apoptosis in tamoxifen-resistant human LCC2 cells assessed as increase in Bax level at 5 to 30 uM incubated for 48 hrs by western blot analysis", "type": "functional, cell-based", "conditions": "dose 5-30 µM"}, "[13]": {"test": "Clearance in BALB/C mouse at 5 mg/kg, iv by LC-MS/MS analysis", "type": "ADME, organism-based", "conditions": "in vivo"}, "LCC2 [14]": {"system": "LCC2", "test": "Induction of apoptosis in tamoxifen-resistant human LCC2 cells assessed as decrease in Bcl-2/Bax ratio by western blot analysis", "type": "functional, cell-based", "conditions": "DDE = dose-dependent effect"}, "[15]": {"test": "Tmax in BALB/C mouse at 20 mg/kg, po by LC-MS/MS analysis", "type": "ADME, organism-based", "conditions": "in vivo"}, "[16]": {"test": "Cmax in BALB/C mouse at 5 mg/kg, iv by LC-MS/MS analysis", "type": "ADME, organism-based", "design": "dose 5 mg/kg, route iv", "conditions": "in vivo"}, "[17]": {"test": "Cmax in BALB/C mouse at 20 mg/kg, po by LC-MS/MS analysis", "type": "ADME, organism-based", "design": "dose 20 mg/kg, route po", "conditions": "in vivo"}, "[18]": {"test": "AUC in BALB/C mouse at 5 mg/kg, iv by LC-MS/MS analysis", "type": "ADME, organism-based", "design": "dose 5 mg/kg, route iv", "conditions": "in vivo"}, "LCC2 [19]": {"system": "LCC2", "test": "Induction of apoptosis in tamoxifen-resistant human LCC2 cells at 5 to 30 uM incubated for 48 hrs by annexin V-FITC staining based flow cytometry", "type": "functional, cell-based", "conditions": "dose 5-30 µM"}, "MCF7 [20]": {"system": "MCF7", "test": "Antitumor activity against human MCF7 cells xenografted in BALB/C mouse assessed as suppression of tumor growth at 10 to 20 mg/kg, po measured every 2 days for 34 days", "type": "functional, organism-based", "conditions": "dose 10-20 mg/kg, time 34.0 day"}, "MCF7 [21]": {"system": "MCF7", "test": "Antitumor activity against human MCF7 cells xenografted in BALB/C mouse assessed as reduction of tumor volume at 20 mg/kg, po measured every 2 days for 34 days", "type": "functional, organism-based", "conditions": "time 34.0 day"}, "MCF7 [22]": {"system": "MCF7", "test": "Antitumor activity against human MCF7 cells xenografted in BALB/C mouse assessed as increase in tumor necrosis area at 20 mg/kg, po […]", "type": "functional, organism-based"}, "[23]": {"test": "Toxicity in BALB/C mouse xenografted with human MCF7 cells assessed as mortality at 10 to 20 mg/kg, po measured after 34 days", "type": "organism-based", "conditions": "in vivo, 816 h, dose 10-20 mg/kg, time 34 day"}, "[24]": {"test": "Toxicity in BALB/C mouse xenografted with human MCF7 cells assessed as morphological changes in liver at 10 to 20 mg/kg, po by hematoxylin and eosin staining based analysis", "type": "organism-based", "conditions": "in vivo, dose 10-20 mg/kg"}, "[25]": {"test": "Toxicity in BALB/C mouse xenografted with human MCF7 cells assessed as morphological changes in kidney at 10 to 20 mg/kg, po by hematoxylin and eosin staining based analysis", "type": "organism-based", "conditions": "in vivo, dose 10-20 mg/kg"}, "MCF7 [26]": {"system": "MCF7", "test": "Induction of mitochondrial membrane potential loss in human MCF7 cells incubated for 48 hrs by JC-1 staining based flow cytometry", "type": "functional, cell-based", "conditions": "dose 1-4 µM, DDE = dose-dependent effect"}, "MCF7 [27]": {"system": "MCF7", "test": "Antitumor activity against human MCF7 cells xenografted in BALB/C mouse assessed as reduction of tumor weight at 20 mg/kg, po measured every 2 days for 34 days", "type": "functional, organism-based", "conditions": "time 34.0 day"}, "[28]": {"test": "Toxicity in BALB/C mouse xenografted with tamoxifen-resistant human LCC2 cells assessed as effect on body weight at 20 mg/kg, po measured after 22 days", "type": "organism-based", "conditions": "in vivo, 528 h, time 22 day"}},
  "note": "Activity calls are given as the source filed them. No cut-off for these calls is given here.",
  "data": [
    {"smiles": "O=S(=O)(Oc1cccc2ccccc12)C1CC2OC1C(c1ccc([Se]c3ccccc3)cc1)=C2c1ccc(O)cc1", "note": "(stereo not drawn)", "values": [
      {"measurement": "Activity", "setting": "[1]", "value": "Active"},
      {"measurement": "Activity", "setting": "MCF7 [2]", "value": "Active"},
      {"measurement": "Activity", "setting": "LCC2 [3]", "value": "Active"},
      {"measurement": "Activity", "setting": "LCC2 [4]", "value": "Active"},
      {"measurement": "Activity", "setting": "MCF7 [5]", "value": "Active"},
      {"measurement": "Activity", "setting": "MCF7 [6]", "value": 9.61, "unit": "%"},
      {"measurement": "Activity", "setting": "LCC2 [7]", "value": "Active"},
      {"measurement": "Activity", "setting": "MCF7 [8]", "value": 9.16, "unit": "%"},
      {"measurement": "Activity", "setting": "MCF7 [9]", "value": 19.98, "unit": "%"},
      {"measurement": "Activity", "setting": "MCF7 [10]", "value": "Active"},
      {"measurement": "Activity", "setting": "MCF7 [11]", "value": "Active"},
      {"measurement": "Activity", "setting": "LCC2 [12]", "value": "Active"},
      {"measurement": "clearance", "setting": "[13]", "value": 52.7, "unit": "mL/min/kg"},
      {"measurement": "Activity", "setting": "LCC2 [14]", "value": "Dde"},
      {"measurement": "Tmax", "setting": "[15]", "value": 2, "unit": "h"},
      {"measurement": "Cmax", "setting": "[16]", "value": 1490, "unit": "ng/mL"},
      {"measurement": "Cmax", "setting": "[17]", "value": 400, "unit": "ng/mL"},
      {"measurement": "AUC", "setting": "[18]", "value": 1550, "unit": "ng·h/mL"},
      {"measurement": "Activity", "setting": "LCC2 [19]", "value": "Active"},
      {"measurement": "Activity", "setting": "MCF7 [20]", "value": "Active"},
      {"measurement": "Activity", "setting": "MCF7 [21]", "value": "Active"},
      {"measurement": "Activity", "setting": "MCF7 [22]", "value": "Active"},
      {"measurement": "Activity", "setting": "[23]", "value": "Non-Toxic"},
      {"measurement": "Activity", "setting": "[24]", "value": "Non-Toxic"},
      {"measurement": "Activity", "setting": "[25]", "value": "Non-Toxic"},
      {"measurement": "Activity", "setting": "MCF7 [26]", "value": "Dde"},
      {"measurement": "Activity", "setting": "MCF7 [27]", "value": "Active"},
      {"measurement": "Activity", "setting": "[28]", "value": "Non-Toxic"}
    ]}
  ]
}
